Experimental data taken from patent publication US20230183239A1, “ECTONUCLEOTIDE PYROPHOSPHATASE-PHOSPHODIESTERASE 1 (ENPP-1) INHIBITORS AND USES THEREOF” (AbbVie Inc., priority 2017, published 2023).

Tests used:
Assay type in all cases: biochemical
ENPP1 [1] = target: T1, ENPP1 (Homo sapiens, UniProt P22413); test: Substrate selectivity ratio, inhibition of cGAMP hydrolysis versus ATP hydrolysis; conditions: ratio Ki AMP-pNP / Ki cGAMP
T1 sequence (P22413 1-925): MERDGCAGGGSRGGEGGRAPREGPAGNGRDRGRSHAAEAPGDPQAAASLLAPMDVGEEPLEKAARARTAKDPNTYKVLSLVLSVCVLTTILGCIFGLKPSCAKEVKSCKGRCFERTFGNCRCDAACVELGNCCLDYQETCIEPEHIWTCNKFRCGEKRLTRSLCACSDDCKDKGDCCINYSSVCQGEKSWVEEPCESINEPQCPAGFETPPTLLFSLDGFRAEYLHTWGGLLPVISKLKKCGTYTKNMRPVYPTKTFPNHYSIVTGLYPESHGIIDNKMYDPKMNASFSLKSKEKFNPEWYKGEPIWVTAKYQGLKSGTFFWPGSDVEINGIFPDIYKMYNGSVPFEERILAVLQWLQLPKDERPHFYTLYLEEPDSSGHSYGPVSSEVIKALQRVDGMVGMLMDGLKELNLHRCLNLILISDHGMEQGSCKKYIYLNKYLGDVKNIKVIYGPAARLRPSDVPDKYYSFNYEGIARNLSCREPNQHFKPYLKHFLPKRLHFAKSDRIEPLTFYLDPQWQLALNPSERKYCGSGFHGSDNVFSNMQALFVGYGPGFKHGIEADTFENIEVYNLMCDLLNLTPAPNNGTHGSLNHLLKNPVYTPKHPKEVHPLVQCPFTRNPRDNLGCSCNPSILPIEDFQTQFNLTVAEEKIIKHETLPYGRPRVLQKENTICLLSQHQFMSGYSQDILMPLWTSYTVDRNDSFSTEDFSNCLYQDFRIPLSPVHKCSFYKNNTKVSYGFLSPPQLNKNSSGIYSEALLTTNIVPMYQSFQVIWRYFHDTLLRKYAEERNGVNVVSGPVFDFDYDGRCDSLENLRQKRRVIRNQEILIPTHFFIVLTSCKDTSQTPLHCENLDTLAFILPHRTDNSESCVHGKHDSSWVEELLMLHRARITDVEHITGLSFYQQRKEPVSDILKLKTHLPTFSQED
Description: The selectivity ratios for inhibition of cGAMP hydrolysis versus ATP hydrolysis were then calculated as follows: […]

ENPP1 [2] = target: T1, ENPP1; test: ENPP1 enzyme assay with AMP-pNP substrate (hydrolysis of ATP analog); conditions: AMP-pNP substrate (ATP analog); Ki from IC50 by Cheng-Prusoff; read-out: ENPP1 Inhibition _AMP-pNP: Ki
Description: The ENPP1 assay with AMP-pNP substrate is conducted in a buffer containing 50 mM Tris-HCl (pH 8.5)/ 250 mM NaCl/0.5 mM CaCl2/1 µM ZnCl2/0.1% DMSO. Inhibitors are added at final concentrations ranging between 10 µM and 30 pM depending on the compound. Duplicate wells are run at each inhibitor concentration. The final assay volume is 40 µL and human recombinant ENPP1 is present at 60 ng/well. The assay is initiated by the addition of substrate (300 µM AMP-pNP final concentration), and incubated for 20 minutes at 37° C. […] Each assay plate also includes wells with no enzyme added (MIN OD) and wells with no inhibitor added (MAX OD). The percent inhibition of ENPP1 for each sample is then calculated as: […]
IC50 values of compounds were calculated by entering the percent inhibition values into a sigmoidal variable slope nonlinear regression model in GraphPad Prism® software.

ENPP1 [3] = target: T1, ENPP1; test: Indirect quantitation of 2',3'-cGAMP hydrolysis (AMP-Glo Assay kit); conditions: cGAMP substrate; Ki from IC50 by Cheng-Prusoff; read-out: ENPP1 Inhibition -cGAMP: Ki

| Compound | Substrate Selectivity: Ki_AMP-pNP/Ki_cGAMP (ENPP1 [1]) | Ki (ENPP1 [2]) | Ki (ENPP1 [3]) |
| --- | --- | --- | --- |
| COc1cc2ncc(C#N)c(-c3ccc(S(N)(=O)=O)cc3)c2cc1OC [Example 136, 4-(3-cyano-6,7-dimethoxyquinolin-4-yl)benzenesulfonamide] | >461 | > 1000 nM | < 100 nM |
| COc1cc2nccc(-c3ccc(CNS(N)(=O)=O)c(F)c3)c2cc1OC [Example 69, N-(4-(6,7-dimethoxyquinolin-4-yl) -2-fluorobenzyl)sulfamide] | 8.9 | < 100 nM | < 100 nM |
| COc1cc2nccc(Oc3ccc(NS(=O)(=O)C4CCC4)cc3)c2cc1OC [Example 261, N-(4-((6,7-dimethoxyquinolin-4-yl)oxy)phenyl)cyclobutanesulfonamide] | >12.9 | > 1000 nM | 100 to 1000 nM |
| COc1cc2nccc(N3CCc4cc(NS(N)(=O)=O)ccc43)c2cc1F [Example 72, N-(1-(6-fluoro-7-methoxyquinolin-4-yl)indolin-5-yl)sulfamide] | 11.9 | < 100 nM | < 100 nM |
| COc1ccc2c(Oc3ccc(S(N)(=O)=O)cc3)ncnc2c1 [Example 356, 4-((7-methoxyquinazolin-4-yl)oxy)benzene sulfonamide] | 40 | 100 to 1000 nM | < 100 nM |
| NS(=O)(=O)N1CCc2ccc(-c3ccnc4cc(F)ccc34)cc2C1 [Example 311, 7-(7-fluoroquinolin-4-yl)-3,4-dihydroisoquinoline-2(1H)-sulfonamide] | >133 | > 1000 nM | < 100 nM |
| COc1cc2c(N3CCC(CCNS(N)(=O)=O)CC3)ncnc2cc1F [Example 184, N-(2-(1-(7-fluoro-6-methoxyquinazolin-4-yl)piperidin-4-yl)ethyl)sulfamide] | > 18.0 | > 1000 nM | 100 to 1000 nM |
| COc1ccc2c(N3CCC4(CC3)CCN(S(N)(=O)=O)C4)c(C#N)cnc2c1 [Example 248, 8-(3-cyano-7-methoxyquinolin-4-yl)-2,8-diazaspiro[4.5]decane-2-sulfonamide] | 48.6 | < 100 nM | < 100 nM |
| COc1cc2nccc(Oc3ccc(S(N)(=O)=O)cc3)c2cc1F [Example 74, 4-((6-fluoro-7-methoxyquinolin-4-yl)oxy)benzenesulfonamide] | 22.5 | < 100 nM | < 100 nM |
| COc1cc2c(N3CCC(CCNS(N)(=O)=O)CC3)ncnc2cc1Cl [Example 185, N-(2-(1-(7-chloro-6-methoxyquinazolin-4-yl)piperidin-4-yl)ethyl)sulfamide] | > 8.00 | > 1000 nM | 100 to 1000 nM |
| COc1ccc2c(N3CCc4c3ccc(NS(N)(=O)=O)c4F)ccnc2c1 [Example 379, N-(4-fluoro-1-(7-methoxyquinolin-4-yl)indolin-5-yl)sulfamide] | >41 | 100 to 1000 nM | < 100 nM |
| COc1ccc2nccc(Oc3ccc(S(N)(=O)=O)cc3)c2c1 [Example 355, 4-((6-methoxyquinolin-4-yl)oxy)benzenesulfonamide] | >53 | > 1000 nM | < 100 nM |
| COc1cc2nccc(N3CCC(CCNS(=O)(=O)N4CCOCC4)CC3)c2cc1OC [Example 147, N-(2-(1-(6,7-dimethoxyquinolin-4-yl)piperidin-4-yl)ethyl)morpholine-4-sulfonamide] | >117 | > 1000 nM | 100 to 1000 nM |
| COc1cc2ncc(C#N)c(N3CCC(CCNS(N)(=O)=O)CC3)c2cn1 [Example 245, N-(2-(1-(3-cyano-7-methoxy-1,6-naphthyridin-4-yl)piperidin-4-yl)ethyl)sulfamide] | >92.6 | > 1000 nM | 100 to 1000 nM |
| COc1cc2ncnc(N3CCC(CCn4nnc(N)n4)CC3)c2cc1OC [Example 195, 2-(2-(1-(6,7-dimethoxyquinazolin-4-yl)piperidin-4-yl)ethyl)-2H-tetrazol-5-amine] | > 45.7 | > 1000 nM | 100 to 1000 nM |
| COc1cc2ncc(F)c(-c3ccc4c(c3)CN(S(N)(=O)=O)CC4)c2cc1OC [Example 229, 7-(3-fluoro-6,7-dimethoxyquinolin-4-yl)-3,4-dihydroisoquinoline-2(1H)-sulfonamide] | 27.2 | < 100 nM | < 100 nM |

Second part, the molecule after the results:

| Substrate Selectivity: Ki_AMP-pNP/Ki_cGAMP (ENPP1 [1]) | Ki (ENPP1 [2]) | Ki (ENPP1 [3]) | Compound |
| --- | --- | --- | --- |
| >134 | > 1000 nM | 100 to 1000 nM | COc1cc2ccc(=O)n(Cc3ccc(NS(N)(=O)=O)cc3)c2cc1OC [Example 126, N-(4-((6,7-dimethoxy-2-oxoquinolin-1(2H)-yl)methyl)phenyl) sulfamide] |
| 6.3 | < 100 nM | < 100 nM | COc1cc2nccc(NCc3ccc(S(N)(=O)=O)cc3)c2cc1F [Example 56, 4-(((6-fluoro-7-methoxyquinolin-4-,yl)amino)methyl)benzenesulfonamide] |
| 79.4 | 100 to 1000 nM | < 100 nM | COc1cc2ncnc(NC(C)c3ccc(NS(N)(=O)=O)cc3)c2cc1OC (stereo in doubt) [Example 253, (R)-N-(4-(1-((6,7-dimethoxyquinazolin-4-yl)amino)ethyl)phenyl)sulfamide] |
| >136 | > 1000 nM | 100 to 1000 nM | COc1ccc2c(-c3ccc(CNS(N)(=O)=O)c(OC)c3)ccnc2c1 [Example 373, N-(2-methoxy-4-(7-methoxyquinolin-4-yl)benzyl)sulfamide] |
| >38 | 100 to 1000 nM | < 100 nM | COc1ccc2c(-c3ccc(CNS(N)(=O)=O)cc3)c(F)cnc2c1 [Example 381, N-(4-(7-methoxy-3-Fluoro-quinolin-4-yl)benzyl) Sulfamide] |
| 30 | < 100 nM | < 100 nM | COc1ccc2c(NCc3ccc(NS(N)(=O)=O)cc3)ccnc2n1 [Example 417, N-(4-(((7-methoxy-1,8-naphthyridin-4-yl)amino)methyl)phenyl)sulfamide] |
| >12.4 | > 1000 nM | 100 to 1000 nM | COc1cc2ncnc(Oc3ccc(NS(N)(=O)=O)cc3)c2cc1OC [Example 273, N-(4-((6,7-dimethoxyquinazolin-4-yl)oxy)phenyl)sulfamide] |
| 30.9 | < 100 nM | < 100 nM | COc1ccc2c(Nc3ccc(NS(N)(=O)=O)cc3)ccnc2n1 [Example 231, N-(4-((7-methoxy-1,8-naphthyridin-4-yl)amino)phenyl)sulfamide] |
| 35 | 100 to 1000 nM | < 100 nM | COc1cc2nccc(Oc3ccc(NS(N)(=O)=O)cc3)c2cn1 [Example 330, N-(4-((7-methoxy-1,6-naphthyridin-4-yl)oxy)phenyl)sulfamide] |
| 39 | 100 to 1000 nM | < 100 nM | COc1ccc2c(-c3ccc(CNS(N)(=O)=O)cc3)c(C(F)(F)F)cnc2c1 [Example 386, N-(4-(7-methoxy-3-(trifluoromethyl)quinolin-4-yl)benzyl) sulfamide] |
